# Reference: patent US8017612B2, “Piperazine compound and use thereof as a HCV polymerase inhibitor” (priority 2006, dated 2011)
# What was measured:
# [1] = molecular target: T1, HCV polymerase (NS5B) type 1a (Hepatitis C virus genotype 1a, UniProt P26664); assay: Assay of enzyme (HCV polymerase) inhibitory activity, type 1a enzyme; format: biochemical, HCV type 1a (cloned from the blood of patients); conditions: HCV polymerase inhibitory activity (IC50), 1a, type 1a enzyme 1.5 μg/ml, 25° C., 60 min
# T1 construct: made in house; host or cells: Escherichia coli (by the 'similar method' of the 1b enzyme)
# How it was run: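 His-tagged NS5B, C-terminal 47 residues deleted, type 1a at 1.5 μg/ml, with 5 μg/ml HCV 3′UTR substrate RNA, 50 μM ATP/GTP/CTP, 2 μM UTP plus [3H]UTP, pH 7.5 Tris, 5 mM MgCl2; 60 min at 25° C. TCA-precipitated RNA counted by scintillation; IC50 from radioactivity with vs. without compound.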
# [2] = molecular target: T2, HCV polymerase (NS5B) type 1b (Hepatitis C virus genotype 1b, UniProt P26663); assay: Assay of enzyme (HCV polymerase) inhibitory activity, type 1b enzyme; format: biochemical, HCV BK strain (type 1b); conditions: HCV polymerase inhibitory activity (IC50), 1b, type 1b enzyme 0.5 μg/ml, 25° C., 60 min
# T2 construct: a region encoding NS5B (J Virol 1991 March, 65(3), 1105-13, 544 amino acids after deletion of 47 amino acids on the C-terminal); 6xHis (C); made in house; host or cells: Escherichia coli
# How it was run: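 His-tagged, C-terminally truncated NS5B (BK strain, 1b; 0.5 μg/ml) incubated with compound 60 min at 25 °C on 3′UTR-derived substrate RNA (5 μg/ml), 50 μM ATP/GTP/CTP, 2 μM UTP plus [3H]UTP, pH 7.5. Acid-precipitated RNA counted; IC50 from radioactivity with and without compound.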
Compound,IC50 [1] [nM],IC50 [2] [nM]
"CC(C)c1ccc(CNC(=O)[C@H]2CN(C(=O)Nc3ccc(Cl)cc3)CCN2S(=O)(=O)c2ccc(C(F)(F)F)cc2)cc1 [Example 271, (R)-4-(4-trifluoromethyl-benzenesulfonyl)-piperazine-1,3-dicarboxylic acid 1-[(4-chloro-phenyl)-amide] 3-(4-isopropyl-benzylamide)]",> 1000,> 1000
"COc1ccccc1NC(=O)N1CCN(S(=O)(=O)c2ccc(C(F)(F)F)cc2)[C@@H](C(=O)NCc2ccc(C(C)C)cc2)C1 [Example 272, (R)-4-(4-trifluoromethyl-benzenesulfonyl)-piperazine-1,3-dicarboxylic acid 3-(4-isopropyl-benzylamide) 1-[(2-methoxy-phenyl)-amide]]",> 1000,100 to 1000
"COc1cccc(NC(=O)N2CCN(S(=O)(=O)c3ccc(C(F)(F)F)cc3)[C@@H](C(=O)NCc3ccc(C(C)C)cc3)C2)c1 [Example 273, (R)-4-(4-trifluoromethyl-benzenesulfonyl)-piperazine-1,3-dicarboxylic acid 3-(4-isopropyl-benzylamide) 1-[(3-methoxy-phenyl)-amide]]",> 1000,100 to 1000
"CC(C)c1ccc(CNC(=O)[C@H]2CN(C(=O)CNC(=O)CCC(=O)O)CCN2S(=O)(=O)c2ccc(C(F)(F)F)cc2)cc1 [Example 274, N-{2-[(R)-3-(4-isopropyl-benzylcarbamoyl)-4-(4-trifluoromethyl-benzenesulfonyl)-piperazin-1-yl]-2-oxo-ethyl}-succinamic acid]",> 1000,100 to 1000
"COC(=O)c1cccc(NC(=O)N2CCN(S(=O)(=O)c3ccc(C(F)(F)F)cc3)[C@@H](C(=O)NCc3ccc(C(C)C)cc3)C2)c1 [Example 275, 3-{[(R)-3-(4-isopropyl-benzylcarbamoyl)-4-(4-trifluoromethyl-benzenesulfonyl)-piperazine-1-carbonyl]-amino}-benzoic acid methyl ester]",100 to 1000,100 to 1000
"COC(=O)c1ccc(NC(=O)N2CCN(S(=O)(=O)c3ccc(C(F)(F)F)cc3)[C@@H](C(=O)NCc3ccc(C(C)C)cc3)C2)cc1 [Example 276, 4-{[(R)-3-(4-isopropyl-benzylcarbamoyl)-4-(4-trifluoromethyl-benzenesulfonyl)-piperazine-1-carbonyl]-amino}-benzoic acid methyl ester]",100 to 1000,100 to 1000
"COc1ccc(NC(=O)N2CCN(S(=O)(=O)c3ccc(C(F)(F)F)cc3)[C@@H](C(=O)NCc3ccc(C(C)C)cc3)C2)cc1 [Example 277, (R)-4-(4-trifluoromethyl-benzenesulfonyl)-piperazine-1,3-dicarboxylic acid 3-(4-isopropyl-benzylamide) 1-[(4-methoxy-phenyl)-amide]]",> 1000,100 to 1000
"CC(C)c1ccc(CNC(=O)[C@H]2CN(C(=O)Cn3ncnn3)CCN2S(=O)(=O)c2ccc(C(F)(F)F)cc2)cc1 [Example 278, (R)-4-(2-tetrazol-2-yl-acetyl)-1-(4-trifluoromethyl-benzenesulfonyl)-piperazine-2-carboxylic acid 4-isopropyl-benzylamide]",< 100,< 100
"COCC(=O)N1CCN(S(=O)(=O)c2ccc(C(F)(F)F)cc2)[C@@H](C(=O)NCc2ccc(C(C)C)cc2)C1 [Example 279, (R)-4-(2-methoxy-acetyl)-1-(4-trifluoromethyl-benzenesulfonyl)-piperazine-2-carboxylic acid 4-isopropyl-benzylamide]",100 to 1000,100 to 1000
"CC(=O)N1CCN(S(=O)(=O)c2ccc(C(C)C)cc2)[C@@H](C(=O)NCc2ccc(C3CC3)cc2)C1 [Example 280, 4-acetyl-1-(4-isopropyl-benzenesulfonyl)-piperazine-2-carboxylic acid 4-cyclopropyl-benzylamide]",100 to 1000,100 to 1000
"CCCc1ccc(S(=O)(=O)N2CCN(C(=O)Nc3cccc(OCC(=O)OCC)c3)C[C@@H]2C(=O)NCc2ccc(C(C)C)cc2)cc1 [Example 281, (3-{[(R)-3-(4-isopropyl-benzylcarbamoyl)-4-(4-propyl-benzenesulfonyl)-piperazine-1-carbonyl]-amino}-phenoxy)-acetic acid ethyl ester]",100 to 1000,< 100
"CCCc1ccc(S(=O)(=O)N2CCN(C(=O)Nc3cccc(OCC(=O)O)c3)C[C@@H]2C(=O)NCc2ccc(C(C)C)cc2)cc1 [Example 282, (3-{[(R)-3-(4-isopropyl-benzylcarbamoyl)-4-(4-propyl-benzenesulfonyl)-piperazine-1-carbonyl]-amino}-phenoxy)-acetic acid]",100 to 1000,< 100
"CC(=O)N1CCN(S(=O)(=O)c2ccc(CCC(=O)O)s2)[C@@H](C(=O)NCc2ccc(C(C)C)cc2)C1 [Example 283, 3-{5-[(R)-4-acetyl-2-(4-isopropyl-benzylcarbamoyl)-piperazine-1-sulfonyl]-thiophen-2-yl}-propionic acid]",> 1000,> 1000
"CC(=O)N1CCN(S(=O)(=O)c2ccc(OCC(F)(F)F)cc2)[C@@H](C(=O)NCc2ccc(C(C)C)cc2)C1 [Example 284, (R)-4-acetyl-1-[4-(2,2,2-trifluoro-ethoxy)-benzenesulfonyl]-piperazine-2-carboxylic acid 4-isopropyl-benzylamide]",100 to 1000,< 100
"CC(C)c1ccc(CNC(=O)[C@H]2CN(C(=O)Nc3ccc(C(=O)O)cc3)CCN2S(=O)(=O)c2ccc(C(F)(F)F)cc2)cc1 [Example 285, 4-{[(R)-3-(4-isopropyl-benzylcarbamoyl)-4-(4-trifluoromethyl-benzenesulfonyl)-piperazine-1-carbonyl]-amino}-benzoic acid]",100 to 1000,< 100
"CC(C)c1ccc(CNC(=O)[C@H]2CN(C(=O)Nc3cccc(C(=O)O)c3)CCN2S(=O)(=O)c2ccc(C(F)(F)F)cc2)cc1 [Example 286, 3-{[(R)-3-(4-isopropyl-benzylcarbamoyl)-4-(4-trifluoromethyl-benzenesulfonyl)-piperazine-1-carbonyl]-amino}-benzoic acid]",100 to 1000,100 to 1000
"CCCc1ccc(S(=O)(=O)N2CCN(C(C)=O)C[C@@H]2C(=O)NCc2ccc(C(C)C)cc2)s1 [Example 287, (R)-4-acetyl-1-(5-propyl-thiophene-2-sulfonyl)-piperazine-2-carboxylic acid 4-isopropyl-benzylamide]",< 100,< 100
"COc1ccc(S(=O)(=O)N2CCN(C(C)=O)C[C@@H]2C(=O)NCc2ccc(C(C)C)cc2)cc1-c1nn[nH]n1 [Example 288, (R)-4-acetyl-1-[4-methoxy-3-(2H-tetrazol-5-yl)-benzenesulfonyl]-piperazine-2-carboxylic acid 4-isopropyl-benzylamide]",100 to 1000,100 to 1000
"CC(=O)N1CCN(S(=O)(=O)c2ccc(CC(=O)O)s2)[C@@H](C(=O)NCc2ccc(C(C)C)cc2)C1 [Example 289, {5-[(R)-4-acetyl-2-(4-isopropyl-benzylcarbamoyl)-piperazine-1-sulfonyl]-thiophen-2-yl}-acetic acid]",> 1000,> 1000
"CCOC(=O)C(=O)N1CCN(S(=O)(=O)c2ccc(C(F)(F)F)cc2)[C@@H](C(=O)NCc2ccc(C(C)C)cc2)C1 [Example 290, [(R)-3-(4-isopropyl-benzylcarbamoyl)-4-(4-trifluoromethyl-benzenesulfonyl)-piperazin-1-yl]-oxo-acetic acid ethyl ester]",> 1000,100 to 1000
"CC(=O)N1CCN(S(=O)(=O)c2ccc(C(C)C)cc2)[C@@H](C(=O)NCc2ccc(C(C)C)cc2C)C1 [Example 291, (R)-4-acetyl-1-(4-isopropyl-benzenesulfonyl)-piperazine-2-carboxylic acid 4-isopropyl-2-methyl-benzylamide]",< 100,< 100
"CC(=O)N1CCN(S(=O)(=O)c2ccc(C(C)C)cc2)[C@@H](C(=O)NCc2ccc(C(C)C)cc2F)C1 [Example 292, (R)-4-acetyl-1-(4-isopropyl-benzenesulfonyl)-piperazine-2-carboxylic acid 2-fluoro-4-isopropyl-benzylamide]",100 to 1000,< 100
"CC(=O)N1CCN(S(=O)(=O)c2ccc(C(C)C)cc2)[C@@H](C(=O)NCc2ccc(C(C)(F)F)cc2)C1 [Example 293, (R)-4-acetyl-1-(4-isopropyl-benzenesulfonyl)-piperazine-2-carboxylic acid 4-(1,1-difluoro-ethyl)-benzylamide]",100 to 1000,100 to 1000
"CCCc1ccc(CNC(=O)[C@H]2CN(C(C)=O)CCN2S(=O)(=O)c2ccc(C(C)C)cc2)cc1 [Example 294, (R)-4-acetyl-1-(4-isopropyl-benzenesulfonyl)-piperazine-2-carboxylic acid 4-propyl-benzylamide]",< 100,< 100
"CCCc1ccc(S(=O)(=O)N2CCN(C(=O)Nc3ccncc3)C[C@@H]2C(=O)NCc2ccc(C(C)C)cc2)cc1 [Example 295, (R)-4-(4-propyl-benzenesulfonyl)-piperazine-1,3-dicarboxylic acid 3-(4-isopropyl-benzylamide) 1-pyridin-4-ylamide]",< 100,< 100
